According to patent US20250179024A1, “AMYLOID AND ASSOCIATED PATHOLOGY MODULATORS AND METHODS THEREOF” (Jawaharlal Nehru Centre for Advanced Scientific Research, priority 2022, published 2025):

Experiments:
[1] = Metal chelation by UV-visible absorbance and fluorescence spectra; format: physicochemical; conditions: NMIs 20 μM, Cu or Zn 2.5 to 40 μM
Source text: The compounds of the present disclosure (NMIs) were designed to chelate with metals (Cu and Zn) and alleviate the metal-dependent Aβ toxicity. […] The change in absorbance and fluorescence spectra of NMIs were monitored to understand the interaction with Cu(II) and Zn(II). […] The fluorescence intensity of M3 at 525 nm decreased with the increasing concentration of Cu(II) or Zn(II) (FIGS. 6(A & B)).

Aβ oligomers = target: T1, Aβ oligomers (Homo sapiens, UniProt P05067); assay: Dot blot assay of Aβ oligomer inhibition (A11 antibody); format: biochemical; conditions: Aβ 10 μM, NMIs 20 μM, 4° C., 24 h
T1 construct: is a 42 amino acid proteolytic product from the amyloid precursor protein; purchased Invitrogen
T1 sequence (P05067 672-713 limits assumed): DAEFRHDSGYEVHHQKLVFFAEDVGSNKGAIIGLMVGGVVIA
Experimental: Aggregation modulation by toxic Aβ aggregates were assessed and were quantified by dot blot assay. Aβ peptide (10 μM) was dissolved in phosphate buffered saline (PBS, 10 mM, pH 7.4), incubated alone and with NMIs (20 μM) at 37° C. for 48 h. For concentration dependent inhibition, 10 μM Aβ peptide was incubated with 1, 2, 5, 10 and 20 μM of NMIs and incubated. Samples for oligomer inhibition studies were prepared by incubating Aβ alone and with NMIs at 4° C. for 24 and subjected to dot blot analysis. For dissolution studies, Aβ peptide alone was incubated in PBS for 48 h to prepare fibrils and then incubated with NMIs further for 48 h. For dot blot experiment, 5 μL of sample was blotted on activated PVDF (polyvinylidene fluoride) membrane in triplicates and air dried. The membrane was blocked with skimmed milk powder for 1 h at room temperature. The blot paper was washed with tris-buffered saline with 0.01% Tween 20 (TBST) three times for 5 min. Blot paper was treated with fibril specific OC primary antibody (Rabbit, 1:1000 dilution) overnight at 4° C. For oligomers blot A11 anti-oligomer antibody (Rabbit 1:1000) was used. […] Blots were analyzed and quantified by ImageJ software. […] The ability of NMIs (M3) to inhibit the formation of Aβ oligomers was assessed by dot blot assay. […]

[2] = target: T2, preformed Aβ fibrillar aggregates (Homo sapiens, UniProt P05067); assay: Dot blot assay of dissolution of preformed Aβ fibrillar aggregates; format: biochemical; conditions: Aβ aggregates 10 μM, NMIs 20 μM, 48 h
T2 construct: is a 42 amino acid proteolytic product from the amyloid precursor protein; purchased Invitrogen
T2 sequence (P05067 672-713 limits assumed): as above
Experimental: Aggregation modulation by toxic Aβ aggregates were assessed and were quantified by dot blot assay. Aβ peptide (10 μM) was dissolved in phosphate buffered saline (PBS, 10 mM, pH 7.4), incubated alone and with NMIs (20 μM) at 37° C. for 48 h. For concentration dependent inhibition, 10 μM Aβ peptide was incubated with 1, 2, 5, 10 and 20 μM of NMIs and incubated. Samples for oligomer inhibition studies were prepared by incubating Aβ alone and with NMIs at 4° C. for 24 and subjected to dot blot analysis. For dissolution studies, Aβ peptide alone was incubated in PBS for 48 h to prepare fibrils and then incubated with NMIs further for 48 h. For dot blot experiment, 5 μL of sample was blotted on activated PVDF (polyvinylidene fluoride) membrane in triplicates and air dried. The membrane was blocked with skimmed milk powder for 1 h at room temperature. The blot paper was washed with tris-buffered saline with 0.01% Tween 20 (TBST) three times for 5 min. Blot paper was treated with fibril specific OC primary antibody (Rabbit, 1:1000 dilution) overnight at 4° C. For oligomers blot A11 anti-oligomer antibody (Rabbit 1:1000) was used. Blot was washed thrice with TBST and treated with HRP-conjugated antirabbit secondary antibody (1:5000 dilutions) for 1 h at room temperature. The bolt was washed thrice for 5 min with TBST and developed with ECL reagent (Biorad) and imaged with ChemiDoc BioRad gel documentation system in autoexposure mode. Blots were analyzed and quantified by ImageJ software. The fibrillar aggregates were formed by incubating Aβ peptide (10 μM) in PBS (pH 7.4) at 37° C. for 48 h. The aggregate samples were treated with NMIs (20 μM) for 48 h followed by dot blot analysis. […] These studies confirmed that M3 as the potential candidate to dissolve Aβ fibrillar aggregates to possibly nontoxic species.

Aβ fibrils = target: T3, Aβ fibrils (Homo sapiens, UniProt P05067); assay: Dot blot assay of Aβ fibrillar aggregation inhibition (OC antibody); format: biochemical; conditions: Aβ 10 μM, NMIs 20 μM, PBS pH 7.4, 37° C., 48 h
T3 construct: is a 42 amino acid proteolytic product from the amyloid precursor protein; purchased Invitrogen
T3 sequence (P05067 672-713 limits assumed): as above
Experimental: Aggregation modulation by toxic Aβ aggregates were assessed and were quantified by dot blot assay. Aβ peptide (10 μM) was dissolved in phosphate buffered saline (PBS, 10 mM, pH 7.4), incubated alone and with NMIs (20 μM) at 37° C. for 48 h. For concentration dependent inhibition, 10 μM Aβ peptide was incubated with 1, 2, 5, 10 and 20 μM of NMIs and incubated. Samples for oligomer inhibition studies were prepared by incubating Aβ alone and with NMIs at 4° C. for 24 and subjected to dot blot analysis. For dissolution studies, Aβ peptide alone was incubated in PBS for 48 h to prepare fibrils and then incubated with NMIs further for 48 h. For dot blot experiment, 5 μL of sample was blotted on activated PVDF (polyvinylidene fluoride) membrane in triplicates and air dried. The membrane was blocked with skimmed milk powder for 1 h at room temperature. The blot paper was washed with tris-buffered saline with 0.01% Tween 20 (TBST) three times for 5 min. Blot paper was treated with fibril specific OC primary antibody (Rabbit, 1:1000 dilution) overnight at 4° C. For oligomers blot A11 anti-oligomer antibody (Rabbit 1:1000) was used. Blot was washed thrice with TBST and treated with HRP-conjugated antirabbit secondary antibody (1:5000 dilutions) for 1 h at room temperature. The bolt was washed thrice for 5 min with TBST and developed with ECL reagent (Biorad) and imaged with ChemiDoc BioRad gel documentation system in autoexposure mode. Blots were analyzed and quantified by ImageJ software. The ability of the NMIs, the compounds of the present disclosure M1-M4 to inhibit Aβ aggregation and dissolve the preformed fibrillar aggregates was evaluated by dot blot assay as explained in Example 2 above. Aβ (10 μM) was incubated alone and with NMIs (20 μM) in phosphate buffer saline (PBS, 10 mM and pH 7.4) at 37° C. for 48 h to form Aβ fibrillar aggregates. The samples were blotted and probed with fibril-selective OC antibody (rabbit anti-human amyloid fibrils). […] M3 was further assessed for inhibitory effect at lower concentrations. […] It has been observed that the oligomers are a highly toxic species compared to Aβ fibrillar aggregates. The ability of NMIs (M3) to inhibit the formation of Aβ oligomers was assessed by dot blot assay. Aβ peptide (10 μM) was incubated with NMIs at 4° C. for 24 h followed by probing with A11 oligomer-specific antibody. […] Native PAGE and western blot analysis was carried out to understand the size distribution of Aβ aggregated species. […] In order to analyse the higher order aggregates not permeable in the gel matrix and the morphological characteristics, Aβ samples were subjected to atomic force microscopy (AFM) imaging.

Aβ = target: T4, Aβ (Homo sapiens, UniProt P05067); assay: AFM imaging of Aβ samples; conditions: Aβ 10 μM, NMIs 20 μM; FIG. 1C
T4 construct: is a 42 amino acid proteolytic product from the amyloid precursor protein; purchased Invitrogen
T4 sequence (P05067 672-713 limits assumed): as above
Experimental: AFM imaging was done to understand the morphological characteristics of Aβ and NMI treated samples. The samples from Aβ aggregation inhibition and dissolution studies were used for AFM imaging. 25 μL of sample was drop-casted on freshly cleaved mica substrate. The Aβ samples were allowed to adhere to substrate surface for 15 min, washed with filtered MiliQ water and air dried. The samples were imaged in Scan assist Air mode in Bioscope resolve AFM system (Bruker). The images were processed and analyzed using NanoScope analysis software. […] It has been observed that the oligomers are a highly toxic species compared to Aβ fibrillar aggregates. The ability of NMIs (M3) to inhibit the formation of Aβ oligomers was assessed by dot blot assay. Aβ peptide (10 μM) was incubated with NMIs at 4° C. for 24 h followed by probing with A11 oligomer-specific antibody. […] Native PAGE and western blot analysis was carried out to understand the size distribution of Aβ aggregated species. […] In order to analyse the higher order aggregates not permeable in the gel matrix and the morphological characteristics, Aβ samples were subjected to atomic force microscopy (AFM) imaging.

[3] = target: T5, Aβ in the presence of Zn (II) (Homo sapiens, UniProt P05067); assay: Zn-dependent Aβ aggregation, native PAGE and western blot; format: biochemical; conditions: Aβ 10 μM, Zn (II) 20 μM, NMIs 20 μM, 37° C., 48 h
T5 construct: is a 42 amino acid proteolytic product from the amyloid precursor protein; purchased Invitrogen
T5 sequence (P05067 672-713 limits assumed): as above
Experimental: The samples were prepared by incubating Aβ42 with specific concentration of NMI compounds of present disclosure and metal ions for 48 h and then subjected to 6% native polyacrylamide gel electrophoresis (Native-PAGE) in tris-glycine buffer. The lower molecular weight aggregates permeabilized through the gel and resolved in the gel. Higher molecular aggregates stuck in the upper part of wells and potentially carried in gel. Then the protein was transferred to PVDF membrane for 4 h at cold condition maintained using ice cold transfer buffer and immersing the transfer apparatus in ice. Then the blots were continued similar to dot blots.
The absorbance and fluorescence spectroscopy studies together with mass spectrometry data confirmed the selective Cu (II) or Zn (II) chelation property of M1 and M3. […] Aβ (10 μM) was incubated in the presence of Cu (II) or Zn (II) (20 μM) with NMIs at 37° C. for 48 h and the samples were subjected to native PAGE and western blot analysis. […] Modulation of Zn-dependent Aβ aggregation by M4 was attributed to its two Zn (II) chelation centres. M3 with dopamine and DPA moieties effectively modulated both Cu (II) and Zn (II)-dependent Aβ aggregation. The effect of NMIs on the morphological outcome of metal-dependent Aβ aggregation was visualized by AFM imaging (FIGS. 1E and 1F). Aβ in the presence of Cu (II) and Zn (II) formed dense and thick fibrils.

Row | interaction with Cu (II) and Zn (II), change in absorbance spectra [1] | oligomer inhibition (Aβ oligomers) [%] | dissolution efficiency [2] [%] | inhibition of the formation of Aβ fibrils (Aβ fibrils) [%] | morphology of Aβ sample, aggregation inhibition (Aβ) | Zn-dependent Aβ aggregation [3] | Compound
1 | no significant change in the spectra | 40 | 25 | ~11 | fibrillar structures | – | CN(C)c1ccc2c3c(cccc13)C(=O)N(CCN(Cc1ccccn1)Cc1ccccn1)C2=O [M2, 2-(2-(bis(pyridin-2-ylmethyl)amino)ethyl)-6-(dimethylamino)-1H-benzo[de]isoquinoline-1,3(2H)-dione]
2 | no significant change in the spectra | – | 43 | ~11 | fibrillar structures | reduce Zn-dependent Aβ aggregation | O=C1c2cccc3c(N(Cc4ccccn4)Cc4ccccn4)ccc(c23)C(=O)N1CCN(Cc1ccccn1)Cc1ccccn1 [M4, 6-(bis(pyridin-2-ylmethyl)amino)-2-(2-(bis(pyridin-2-ylmethyl)amino)ethyl)-1H-benzo[de]isoquinoline-1,3(2H)-dione]
